Measurements as given in patent publication US9770026B2, “Substituted pyrimidine compound and uses thereof” (Shenyang Sinochem Agrochemicals R&D Co., Ltd., priority 2012, dated 2017).

How the values were obtained:
[1] = system: rice blast; test: microbe, parasite or virus in culture; type: cell-based; details: Pyricularia oryzae; for inhibition at 25 ppm: read-out: inhibition rate against rice blast, 25 ppm, in vitro; for inhibition at 8.3 ppm: read-out: inhibition rate against rice blast, 8.3 ppm, in vitro
[2] = system: cucumber gray mold; test: fungicidal activity in vitro (inhibition rate) against cucumber gray mold; type: cell-based; details: 25 ppm, in vitro; read-out: inhibition rate against cucumber gray mold
[3] = system: Diamond back moth; test: insecticidal activity against diamond back moth, airbrush spray; type: in vivo
In short: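 Airbrush leaf-disc spray test: both faces of 2 cm cabbage discs received 0.5 ml of test solution at 0.7 kg/cm^2. Solutions were made in acetone:methanol (1:1) and brought to concentration with 0.1% Tween 80 in water. Ten second-instar larvae per disc, triplicates, were held at 25° C and 60˜70% R.H., with mortality recorded at 72 hrs.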

[4] = system: armyworm; test: bioactivity test against armyworm, airbrush spray; type: in vivo
[5] = system: Green peach aphids (Myzus Persicae Sulzer); test: bioactivity test against green peach aphid, airbrush foliar spray; type: in vivo; details: for pest or weed control at 10 µg/mL: 10 mg/L; for pest or weed control at 100 µg/mL: 100 mg/L
In short: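 Aphids (15-30 per cabbage leaf disc) on moist filter paper were airbrush-sprayed at 10 psi, 0.5 mL, with compound from acetone:methanol (1:1) diluted in water with 0.1% tween 80. Held at 25±1 C, 60±5% RH; survivors counted after 48 hrs to give death rates.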

[6] = system: carmine spider mite; test: bioactivity test against carmine spider mite, airbrush spray; type: in vivo; details: for pest or weed control at 10 µg/mL: 10 mg/L; for pest or weed control at 10 µg/mL / pest or weed control at 100 µg/mL / pest or weed control at 600 µg/mL: read-out: Insecticidal activity against carmine spider mite (% ); for pest or weed control at 100 µg/mL: 100 mg/L
In short: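 Broadbean seedlings infested with adult mites were sprayed with compound (acetone/methanol stock diluted in 0.1% Tween 80 water) by airbrush at 0.7 kg/cm^2, 0.5 ml. Three replicates were run. Mortality was scored after 72 hrs.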

[7] = system: wheat powdery mildew; test: protectant activity in vivo against wheat powdery mildew; details: for pest or weed control at 6.25 µg/mL / pest or weed control at 25 µg/mL / pest or weed control at 100 µg/mL / pest or weed control at 400 µg/mL / pest or weed control at 400 ppm: Triticum aestivum, 168 h; for pest or weed control at 6.25 µg/mL: read-out: control effect against wheat powdery mildew (%), 6.25 mg/L; for pest or weed control at 25 µg/mL: read-out: control effect against wheat powdery mildew (%), 25 mg/L; for pest or weed control at 100 µg/mL: read-out: control effect against wheat powdery mildew (%), 100 mg/L; for pest or weed control at 400 µg/mL: read-out: control effect against wheat powdery mildew (%), 400 mg/L; for pest or weed control at 400 ppm: read-out: protectant activity against wheat powdery mildew in vivo, 400 ppm
[8] = system: cucumber downy mildew; test: protectant activity in vivo against cucumber downy mildew; details: for pest or weed control at 100 ppm: read-out: protectant activity against cucumber downy mildew in vivo, 100 ppm; for pest or weed control at 400 ppm: read-out: protectant activity against cucumber downy mildew in vivo, 400 ppm
[9] = system: corn rust; test: protectant activity in vivo against corn rust; details: Zea mays, 168 h; for pest or weed control at 6.25 µg/mL: read-out: control effect against corn rust (%), 6.25 mg/L; for pest or weed control at 6.25 µg/mL / pest or weed control at 25 µg/mL / pest or weed control at 100 µg/mL / pest or weed control at 400 µg/mL: protectant activity; for pest or weed control at 25 µg/mL: read-out: control effect against corn rust (%), 25 mg/L; for pest or weed control at 100 µg/mL: read-out: control effect against corn rust (%), 100 mg/L; for pest or weed control at 400 µg/mL: read-out: control effect against corn rust (%), 400 mg/L; for pest or weed control at 25 ppm: read-out: protectant activity against corn rust in vivo, 25 ppm; for pest or weed control at 100 ppm: read-out: protectant activity against corn rust in vivo, 100 ppm; for pest or weed control at 400 ppm: read-out: protectant activity against corn rust in vivo, 400 ppm
[10] = Tetranychus cinnabarinus, 72 h, contrastive test
[11] = 72 h, 600 mg/L, read-out: Insecticidal activity against armyworm (%)
[12] = Myzus persicae, foliar, 48 h, contrastive test, read-out: Insecticidal activity against peach aphid (%)
[13] = Myzus persicae, foliar, 48 h, 600 mg/L, contrastive test, read-out: Insecticidal activity against peach aphid (%)
[14] = Tetranychus cinnabarinus, 72 h, 600 mg/L, contrastive test
[15] = Myzus persicae, foliar, 48 h, death rate after 48 hrs

Compound | inhibition at 25 ppm [1] | inhibition at 25 ppm [2] | pest or weed control at 10 µg/mL [6, 10] | pest or weed control at 100 µg/mL [6, 10] | inhibition at 8.3 ppm [1] | pest or weed control at 600 µg/mL ([3]; 72 h, 600 mg/L) | pest or weed control at 600 µg/mL [4, 11] | pest or weed control at 10 µg/mL [5, 12] | pest or weed control at 100 µg/mL [5, 12] | pest or weed control at 600 µg/mL [5, 13] | pest or weed control at 600 µg/mL [6, 14] | pest or weed control at 6.25 µg/mL [9] | pest or weed control at 25 µg/mL [9] | pest or weed control at 100 µg/mL [9] | pest or weed control at 400 µg/mL [9] | pest or weed control at 6.25 µg/mL ([7]; protectant activity) | pest or weed control at 25 µg/mL ([7]; protectant activity) | pest or weed control at 100 µg/mL ([7]; protectant activity) | pest or weed control at 400 µg/mL ([7]; protectant activity) | pest or weed control at 600 ppm [5, 15] | also measured
Cc1ncnc(NCc2ccc(Oc3ncc(C(F)(F)F)cc3Cl)cc2)c1Cl [CK32, reference compound] | < 50% | 0% | 0% | 22% |  |  |  |  |  |  |  |  |  |  |  |  |  |  |  |  | Insecticidal activity against diamond back moth (%) ([3]; 600 mg/L): 0%; Insecticidal activity against armyworm (%) ([4]; 600 mg/L): 0%; Insecticidal activity against peach aphid (%) ([5]; 600 mg/L, contrastive test): 0%; Insecticidal activity against carmine spider mite (% ) ([6]; 600 mg/L, contrastive test): 91%; control effect against wheat powdery mildew (%) ([7]; 400 mg/L, protectant activity): 0%; control effect against cucumber downy mildew (%) ([8]; 400 mg/L, protectant activity): 60%
Cc1ncnc(NC(C)c2ccc(Oc3ccc(C(F)(F)F)cc3)cc2)c1Cl (centres unmarked) [CK46, reference compound] | < 50% | 0% | 28% | 63% | 0% | 100% | 71% | 0% | 5% | 100% | 100% | 0% | 0% | 0% | 40% |  |  |  |  |  | pest or weed control at 10 µg/mL ([3]; 72 h, 10 mg/L): 0%; pest or weed control at 100 µg/mL ([3]; 72 h, 100 mg/L): 10%; pest or weed control at 10 µg/mL ([4]; 72 h, 10 mg/L, read-out: Insecticidal activity against armyworm (%)): 0%; pest or weed control at 100 µg/mL ([4]; 72 h, 100 mg/L, read-out: Insecticidal activity against armyworm (%)): 0%
CCc1ncnc(NCc2ccc(Oc3ccc(C(F)(F)F)cc3Cl)cc2)c1Cl [CK48, reference compound] | < 50% | 0% |  |  | 0% | 40% | 50% | 0% | 87% | 100% |  | 0% | 0% | 20% | 60% | 0% | 0% | 0% | 30% |  | 
Cc1ncnc(NCc2ccc(Oc3ccc(C(F)(F)F)cc3Cl)cc2)c1Cl [CK51, reference compound] |  | 0% |  |  | 0% | 57% | 43% | 0% | 50% | 100% |  | 0% | 0% | 20% | 80% | 0% | 40% | 80% | 100% |  | 
Cc1ncnc(NCCc2ccc(Oc3ccc(C(F)(F)F)cc3)cc2)c1Cl [II-69] | 80 to 99% | 80 to 99% | 90% | 100% |  |  |  | 100% | 100% | 100% | 100% |  |  |  |  |  |  |  |  | 100% | pest or weed control at 100 ppm ([4]; 72 h, 100 ppm, mortality after 72 h): 80 to 99%; pest or weed control at 600 ppm ([4]; 72 h, 600 ppm, mortality after 72 h): 100%; pest or weed control at 2.5 µg/mL ([5]; Myzus persicae, foliar, 48 h, 2.5 mg/L, contrastive test, read-out: Insecticidal activity against peach aphid (%)): 81%; pest or weed control at 5 µg/mL ([5]; Myzus persicae, foliar, 48 h, 5 mg/L, contrastive test, read-out: Insecticidal activity against peach aphid (%)): 100%; pest or weed control at 2.5 ppm ([5]; Myzus persicae, foliar, 48 h, 2.5 ppm, death rate after 48 hrs): 80 to 99%; pest or weed control at 5 ppm ([5]; Myzus persicae, foliar, 48 h, 5 ppm, death rate after 48 hrs): 100%; pest or weed control at 10 ppm ([5]; Myzus persicae, foliar, 48 h, 10 ppm, death rate after 48 hrs): 100%; pest or weed control at 100 ppm ([5]; Myzus persicae, foliar, 48 h, 100 ppm, death rate after 48 hrs): 100%; pest or weed control at 10 ppm ([6]; Tetranychus cinnabarinus, 72 h, 10 ppm, mortality after 72 hrs): 80 to 99%; pest or weed control at 100 ppm ([6]; Tetranychus cinnabarinus, 72 h, 100 ppm, mortality after 72 hrs): 100%; pest or weed control at 600 ppm ([6]; Tetranychus cinnabarinus, 72 h, 600 ppm, mortality after 72 hrs): 100%; pest or weed control at 25 ppm [9]: 100%; pest or weed control at 100 ppm [9]: 100%; pest or weed control at 400 ppm [9]: 100%; pest or weed control at 400 ppm [7]: 100%; pest or weed control at 100 ppm ([8]; Cucumis sativus, 168 h): 80 to 99%; pest or weed control at 400 ppm ([8]; Cucumis sativus, 168 h): 100%
FC(F)c1ncnc(NCCc2ccc(Oc3ccc(Cl)cc3Cl)nc2)c1Cl [III-622] | 80 to 99% | 80 to 99% |  |  |  |  |  |  |  |  |  |  |  |  |  |  |  |  |  | 100% | pest or weed control at 600 ppm ([3]; 72 h, 600 ppm, mortality after 72 hrs, read-out: control (test results against diamond back moth)): 100%; pest or weed control at 6.25 ppm ([9]; read-out: protectant activity against corn rust in vivo, 6.25 ppm): 80 to 99%; pest or weed control at 25 ppm [9]: 100%; pest or weed control at 100 ppm [9]: 100%; pest or weed control at 400 ppm [9]: 100%; pest or weed control at 400 ppm [7]: 100%; pest or weed control at 6.25 µg/mL ([8]; Cucumis sativus, 168 h, read-out: control effect against cucumber downy mildew (%), 6.25 mg/L, protectant activity): 98%; pest or weed control at 12.5 µg/mL ([8]; Cucumis sativus, 168 h, read-out: control effect against cucumber downy mildew (%), 12.5 mg/L, protectant activity): 100%; pest or weed control at 25 µg/mL ([8]; Cucumis sativus, 168 h, read-out: control effect against cucumber downy mildew (%), 25 mg/L, protectant activity): 100%; pest or weed control at 50 µg/mL ([8]; Cucumis sativus, 168 h, read-out: control effect against cucumber downy mildew (%), 50 mg/L, protectant activity): 100%; pest or weed control at 100 µg/mL ([8]; Cucumis sativus, 168 h, read-out: control effect against cucumber downy mildew (%), 100 mg/L, protectant activity): 100%; pest or weed control at 400 µg/mL ([8]; Cucumis sativus, 168 h, read-out: control effect against cucumber downy mildew (%), 400 mg/L, protectant activity): 100%; pest or weed control at 6.25 ppm ([8]; Cucumis sativus, 168 h, read-out: protectant activity against cucumber downy mildew in vivo, 6.25 ppm): 80 to 99%; pest or weed control at 12.5 ppm ([8]; Cucumis sativus, 168 h, read-out: protectant activity against cucumber downy mildew in vivo, 12.5 ppm): 100%; pest or weed control at 25 ppm ([8]; Cucumis sativus, 168 h, read-out: protectant activity against cucumber downy mildew in vivo, 25 ppm): 100%; pest or weed control at 50 ppm ([8]; Cucumis sativus, 168 h, read-out: protectant activity against cucumber downy mildew in vivo, 50 ppm): 100%; pest or weed control at 100 ppm ([8]; Cucumis sativus, 168 h): 100%; pest or weed control at 400 ppm ([8]; Cucumis sativus, 168 h): 100%
